From US20090093517A1, “BIS1,2,3,4-TETRAHYDROISOQUINOLINE DERIVATIVES AND THEIR USES AS PHARMACEUTICALS” (UNIVERSITE DE LIEGE, priority 2006, published 2009)
Where a name gives a salt, the structure may show the parent alone.

Biological target: apamin-sensitive sites of the SK channels
Assay: Competition binding between 125I-apamin and bis-tetrahydroisoquinoline derivatives on rat cortical synaptosomes
Details: for Ki: separated stereoisomers, rat cortical apamin sensitive sites, 125I-apamin; for % of 125I-apamin displaced at 10 μM: 10 μM compound, ±10 pM 125I-apamin, rat cortical synaptosomes, 1 h at 0° C.
Protocol: These experiments are used to evaluate the potency of the bis-tetrahydroisoquinoline derivatives to interact with the apamin-sensitive sites of the SK channels, the selected target for which a blockade is expected to be useful in the treatment of Alzheimer's disease, Parkinson's disease, schizophrenia, cognitive dysfunction, or depression. Two reference compounds are also tested for comparison
Rats (male Wistar, ±250 g) were killed by decapitation and the brains were quickly removed and kept on ice during dissection. Crude cortex was dispersed in 0.32 M sucrose by using a Pottero homogenizer. After a first centrifugation at 1500×g for 10 min, the supernatant was centrifuged at 25000×g for 10 min. The resulting pellet was dispersed in 5 mL 0.32 M sucrose to be aliquoted. Protein concentration was determined by the method of Hartree with bovine serum albumin as a standard.^36
The buffer consisted of a 10 mM Tris-HCl (pH 7.5) solution containing 5.4 mM KCl and 0.1% bovine serum albumin. The radioligand was ^125I-apamin (Perkin-Elmer, Specific activity 81.4 TBq mmol^−1). Glass fibre filters (Whatman GF/C) used in these experiments were coated for 1 h in 0.5% polyethylenimine and then washed with 2.5 mL of the ice-cold buffer just before use. Binding experiments were always terminated as follows. Aliquots were filtered under reduced pressure through Whatman filters. Filters were rapidly washed twice with 2.5 mL of buffer. The radioactivity remaining on the filter was evaluated with a Packard Tri-Carb 1600TR liquid scintillation analyser with an efficacy of 69%. ^125I-apamin binding to the filters was also estimated in the absence of synaptosomes. This binding was also substracted from the total binding. Curve fitting was carried out using GraphPad Prism.
Saturation Binding Experiments—Synaptosomes (0.2 mg of protein/mL) were incubated with increasing concentrations of ^125I-apamin (25 μL) with 975 μL of incubation buffer for 1 h at 0° C. Samples were then filtered on Whatman GF/C filter and the radioactivity was measured as described above. Non specific binding was determined in parallel experiments in the presence of an excess of unlabeled apamin (0.1 μM) and subtracted from the total binding to obtain the specific binding.
Competition Experiments between ^125I-apamin and Bis-tetrahydroisoquinoline derivatives—Synaptosomes (0.2 mg of protein/mL) were incubated for 1 h at 0° C. with ±10 pM of ^125I-apamin (25 μL) and nine concentrations of bis-tetrahydroisoquinoline derivatives (10^−4 to 10^−7 M). Non specific binding was determined in the presence of an excess of unlabeled apamin (0.1 μM). Samples were then filtered on Whatman filter and the radioactivity was measured as described above.

## COc1cc2c(c(OC)c1OC)C(CCCCC1c3c(cc(OC)c(OC)c3OC)CCN1C)N(C)CC2 (stereo not drawn) [Compound 4h E2, 1,4-bis[1-(6,7,8-trimethoxy-2-methyl-1,2,3,4-tetrahydroisoquinolyl)]-butane hydrochloride]
Listed as 4h E2, hydrochloride
  Ki: 0.746 ± 0.136 µM

## Cc1cc(N)c2ccccc2[n+]1CCCCCCCCCC[n+]1c(C)cc(N)c2ccccc21 [DQ+, Dequalinium, reference compound]
  Ki: 0.221 ± 0.011 µM

## o-bis[1-(6,7-dimethoxy-2-methyl-1,2,3,4-tetrahydroisoquinolyl)]-xylene hydrochloride [Compound 4m]
  % of 125I-apamin displaced at 10 μM: 62%

## p-bis[1-(2-methyl-1,2,3,4-tetrahydroisoquinolyl)]-xylene hydrochloride [Compound 4l]
  % of 125I-apamin displaced at 10 μM: 27%

## CN1CCc2ccccc2C1CCCCC1c2ccccc2CCN1C.Cl (stereo not drawn) [Compound 4b, 1,4-bis[1-(2-methyl-1,2,3,4-tetrahydroisoquinolyl)]-butane hydrochloride]
  % of 125I-apamin displaced at 10 μM: 16%

## COc1cc2c(cc1OC)C(CCCCCC1c3cc(OC)c(OC)cc3CCN1C)N(C)CC2 (stereo not drawn) [Compound 4f MESO, 1,5-bis[1-(6,7-dimethoxy-2-methyl-1,2,3,4-tetrahydroisoquinolyl)]-pentane hydrochloride]
Listed as 4f MESO, hydrochloride
  Ki: 0.731 ± 0.063 µM

## COc1cc2c(c(OC)c1OC)C(CCCC1c3c(cc(OC)c(OC)c3OC)CCN1C)N(C)CC2 (stereo not drawn) [Compound 4g E1, 1,3-bis[1-(6,7,8-trimethoxy-2-methyl-1,2,3,4-tetrahydroisoquinolyl)]-propane hydrochloride]
Listed as 4g E1, hydrochloride
  Ki: 1.74 ± 0.195 µM

## p-bis[1-(6,7,8-trimethoxy-2-methyl-1,2,3,4-tetrahydroisoquinolyl)]-xylene [Compound 4r]
  % of 125I-apamin displaced at 10 μM: 51%

## CN1CCc2ccccc2C1CCCC1c2ccccc2CCN1C.Cl (stereo not drawn) [Compound 4a, 1,3-bis[1-(2-methyl-1,2,3,4-tetrahydrolisoquinolyl)]-propane hydrochloride]
  % of 125I-apamin displaced at 10 μM: 13%
